Source: patent US6924300B2, “Oxyiminoalkanoic acid derivatives” (Takeda Chemical Industries, Ltd., priority 1998, dated 2005)
Where two headings read alike, the source gives them in different places.

Legend:
[1] = biological target: T1, PPARγ-RXRα heterodimer (Homo sapiens, UniProt P37231); experiment: PPARγ-RXRα heterodimer transactivation assay (luciferase reporter in PPARγ: RXRα: 4ERPP/CHO-K1 cell); assay type: cell-based; settings: luciferase induction, 48 hours, concentration for 50% of the maximum activity
T1 construct: expressed in transfected cells
T1 sequence (P37231 1-477 isoform P37231-2): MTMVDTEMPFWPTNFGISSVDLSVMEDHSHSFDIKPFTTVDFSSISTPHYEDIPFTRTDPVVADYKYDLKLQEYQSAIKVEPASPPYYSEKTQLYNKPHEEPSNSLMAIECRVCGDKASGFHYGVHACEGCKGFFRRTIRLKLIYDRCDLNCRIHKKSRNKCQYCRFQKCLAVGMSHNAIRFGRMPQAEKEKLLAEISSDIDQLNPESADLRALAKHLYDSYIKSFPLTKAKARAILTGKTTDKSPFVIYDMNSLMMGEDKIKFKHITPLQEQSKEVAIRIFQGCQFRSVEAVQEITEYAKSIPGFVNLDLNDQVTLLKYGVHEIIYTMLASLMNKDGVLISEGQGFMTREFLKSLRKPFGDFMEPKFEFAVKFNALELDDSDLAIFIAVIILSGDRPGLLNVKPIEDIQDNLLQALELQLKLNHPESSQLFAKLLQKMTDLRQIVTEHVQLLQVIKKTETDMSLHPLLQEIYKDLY
T1 sequence (P19793 1-462 partner): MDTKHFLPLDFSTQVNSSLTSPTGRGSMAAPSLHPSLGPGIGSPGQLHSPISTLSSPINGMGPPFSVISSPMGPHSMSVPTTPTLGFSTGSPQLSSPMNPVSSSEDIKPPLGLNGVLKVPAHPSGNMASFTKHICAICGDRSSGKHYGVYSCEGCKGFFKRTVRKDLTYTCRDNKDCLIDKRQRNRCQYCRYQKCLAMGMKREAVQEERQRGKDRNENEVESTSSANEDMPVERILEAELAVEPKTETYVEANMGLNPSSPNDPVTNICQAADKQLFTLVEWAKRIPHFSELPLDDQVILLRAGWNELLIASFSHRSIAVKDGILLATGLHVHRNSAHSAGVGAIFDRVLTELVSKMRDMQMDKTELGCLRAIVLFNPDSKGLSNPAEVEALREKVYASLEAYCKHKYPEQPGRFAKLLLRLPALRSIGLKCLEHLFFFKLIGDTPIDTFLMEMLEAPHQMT
Method: After washing a 96-well white plate with PBS (Phosphate-buffered saline), 90 μl of HAM F12 medium containing 0.1% fatty acid-free bovine serum albumin (BSA) and 10 μl of a test substance were added to the plate, which was then cultured in a carbonate gas incubator at 37° C. for 48 hours. After removing the medium, 40 μl of […] 7.5 (Wako Pure Chemical Ind. Ltd.) was added, and after stirring, a luciferase activity was determined using Lumistar (BMG Labtechnologies GmBH, Germany).
An induction magnitude was calculated based on the luciferase activity of each test substance with the luciferase activity in the non-treatment group being regarded as 1.
Subsequently, the cells were transferred into a HAM F12 medium containing 10% Fetal Bovine Serum and cultured for 24 hours and then the cells were scraped again and centrifuged, and then suspended in HAM F12 medium containing 10% Fetal Bovine Serum supplemented with 500 μg/ml of GENETICIN (Life Technologies, Inc., USA) and 250 μg of ZEOCIN (Invitrogen, USA) and diluted to the density of 10^4 cells/ml upon inoculation to a 96-well plate (Corning Coster Corporation, USA), which was cultured in a carbonate gas incubator at 37° C., whereby obtaining a GENETICIN- and ZEOCIN-resistant transformant.
Subsequently, the transformant cell line thus obtained was cultured in a 24-well plate (Corning Coster Corporation, USA) and then screened, by addition of 10 μM Pioglitazone, for a cell line in which the luciferase expression was induced, i.e., PPARγ: RXRα: 4ERPP/CHO-K1 cell.

[2] = system: KKA^y mice; experiment: Hypoglycemic and hypolipidemic actions in mice (test compound in diet, plasma glucose and triglyceride); assay type: in vivo; settings: Mus musculus, feed or water, 96 h, 4 days
Method: A test compound was added to a powdered diet (CE-2, Clea Japan Inc.) at a concentration of 0.01%, and the diet was given ad libitum to KKA^y mice (9 to 12 weeks old, 5 animals in a group), a model of obese Type II diabetes mellitus (non-insulin dependent diabetes mellitus), for 4 days. During this period, water was given ad libitum. Blood was sampled from orbital venous plexus and plasma glucose and triglyceride levels were determined enzymatically using L type Wako Glu2 (Wako Pure Chemical In. Ltd.) and Iatro-MA701 TG kit (Iatron Laboratories Inc.) or L type Wako TG.H (Wako Pure Chemical Ind. Ltd.), respectively.
The value of each treatment group is represented as % reduction when compared with the non-treatment group, and summarized in Table 1.

[3] = system: KKA^y mice; experiment: Hypoglycemic and hypolipidemic actions in mice (test compound in diet, plasma glucose and triglyceride); assay type: in vivo; settings: Mus musculus, feed or water, 96 h, dosage: 0.005% in diet, 4 days
[4] = 0.01% in diet, plasma triglyceride, quantified using L-type Wako TG.H, read-out: Hypotriglyceridemic effect (% reduction)
[5] = 0.01% in powdered diet, plasma glucose, compared with non-treatment group, read-out: Hypoglycemic effect (% reduction)
[6] = 0.01% in diet, plasma triglyceride, Iatro-MA701 TG kit, compared with non-treatment group, read-out: Hypotriglyceridemic effect (% reduction)

Row | Structure (SMILES) | EC50 [1] | melting point | inhibition in vivo at 0.01 % [2, 4] | inhibition in vivo at 0.01 % [2, 5] | inhibition in vivo at 0.005 % ([3]; plasma glucose, compared with non-treatment group, read-out: Hypoglycemic effect (% reduction)) | inhibition in vivo at 0.005 % ([3]; plasma triglyceride, quantified using L-type Wako TG.H, read-out: Hypotriglyceridemic effect (% reduction)) | inhibition in vivo at 0.01 % [2, 6]
1 | Cc1oc(-c2ccccc2)nc1COc1ccc(CO/N=C(\CCC(=O)O)c2ccc(F)cc2)cc1 [Example 17, E-4-(4-fluorophenyl)-4-[4-(5-methyl-2-phenyl-4-oxazolylmethoxy)benzyloxyimino]butyric acid] | 47 nM | – | 59% | 49% | – | – | –
2 | Cc1oc(-c2ccccc2)nc1COc1ccc(CO/N=C(\C(=O)O)C(C)C)cc1 [Example 25, Z-3-methyl-2-[4-(5-methyl-2-phenyl-4-oxazolylmethoxy)benzyloxyimino]butyric acid] | 790 nM | – | – | 38% | – | – | 66%
3 | Cc1oc(-c2ccccc2)nc1COc1ccc(CO/N=C(\C(=O)O)c2ccc(Oc3ccccc3)cc2)cc1 [Example 11, Z-2-[4-(5-methyl-2-phenyl-4-oxazolylmethoxy)benzyloxyimino]-2-(4-phenoxyphenyl)acetic acid] | 410 nM | – | – | 49% | – | – | 82%

More lines, main results first:

Row | EC50 [1] | melting point | Structure (SMILES) | inhibition in vivo at 0.01 % [2, 4] | inhibition in vivo at 0.01 % [2, 5] | inhibition in vivo at 0.005 % ([3]; plasma glucose, compared with non-treatment group, read-out: Hypoglycemic effect (% reduction)) | inhibition in vivo at 0.005 % ([3]; plasma triglyceride, quantified using L-type Wako TG.H, read-out: Hypotriglyceridemic effect (% reduction)) | inhibition in vivo at 0.01 % [2, 6]
4 | 330 nM | 164 to 165 °C | Cc1oc(-c2ccccc2)nc1COc1ccc(CO/N=C(\CCC(N)=O)c2ccccc2)cc1 [Example 106, E-4-[4-(5-methyl-2-phenyl-4-oxazolylmethoxy)benzyloxyimino]-4-phenylbutyramide] | – | – | 46% | 65% | –
5 | 260 nM | – | Cc1oc(-c2ccccc2)nc1COc1ccc(CO/N=C(\CCCCCCC(=O)O)c2ccccc2)cc1 [Example 81, E-8-[4-(5-methyl-2-phenyl-4-oxazolylmethoxy)benzyloxyimino]-8-phenyloctanoic acid] | 75% | 54% | – | – | –
